In patent publication US20230012368A1 (Hoffmann-La Roche Inc., priority 2018, published 2023):
Where a name gives a salt, the structure may show the parent alone. Read-outs that look alike come from different tables or passages of the source.

Tested on: Acinetobacter baumannii ATCC 17978
Assay: Antimicrobial susceptibility testing: 90% growth inhibitory concentration (IC90) determination
Type: cell-based
Conditions: 90% growth inhibitory concentration, Acinetobacter baumannii ATCC17978, Iso-Sensitest broth, OD 600 nm over 16h, read-out: ATCC17978 IC90
Summary of the method: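 Growth of the Acinetobacter baumannii strain was followed by optical density at 600 nm every 20 minutes for 16h at 35±2° C. Inoculum was ~5×10^(5) CFU/ml in Iso-Sensitest medium, with twofold compound dilutions (e.g. 50 to 0.097 μM final). The 90% inhibitory concentration was derived in log-phase growth.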

[1] = Acinetobacter baumannii, ATCC17978, 16 h

| SMILES | IC90 [1] | IC90 |
| --- | --- | --- |
| CCc1cc(Nc2nccn3c(-c4ccc(Oc5ccccn5)c(F)c4F)cnc23)ccc1C(=O)NCCNC(=O)[C@H](N)CCCNC(=N)N [Example 422, N-[2-[[(2R)-2-amino-5-guanidino-pentanoyl]amino]ethyl]-4-[[3-[2,3-difluoro-4-(2-pyridyloxy)phenyl]imidazo [1,2-a]pyrazin-8-yl]amino]-2-ethyl-benzamide; formic acid] | 870 nM | – |
| CCc1cc(Nc2nccn3c(-c4ccc(OC)c(F)c4F)cnc23)ccc1C(=O)NCC(=O)NCCO [Example 423, 4-((3-(2,3-difluoro-4-methoxyphenyl)imidazo[1,2-a]pyrazin-8-yl)amino)-2-ethyl-N-(2-((2-hydroxyethyl)amino)-2-oxoethyl)benzamide] | 210 nM | – |
| CCc1cc(Nc2nccn3c(-c4ccc(Oc5ccc(F)cn5)c(F)c4F)cnc23)ccc1C(=O)NCCNC(=O)[C@H](N)CCCNC(=N)N [Example 424, N-[2-[[(2R)-2-amino-5-guanidino-pentanoyl]amino]ethyl]-4-[[3-[2,3-difluoro-4-[(5-fluoro-2-pyridyl)oxy]phenyl]imidazo [1,2-a]pyrazin-8-yl]amino]-2-ethyl-benzamide; formic acid] | 900 nM | – |
| CCc1cc(Nc2nccn3c(-c4ccc(Oc5ccc(F)cn5)c(F)c4F)cnc23)ccc1C(=O)NCCNC(=O)CCN [Example 425, N-[2-(3-aminopropanoylamino)ethyl]-4-[[3-[2,3-difluoro-4-[(5-fluoro-2-pyridyl)oxy]phenyl]imidazo [1,2-a]pyrazin-8-yl]amino]-2-ethyl-benzamide; formic acid] | 600 nM | – |
| CCc1cc(Nc2nccn3c(-c4ccc(Oc5ccccn5)c(F)c4F)cnc23)ccc1C(=O)NCCNC(=O)[C@H](N)CCNC(=N)N [Example 426, N-[2-[[(2R)-2-amino-4-guanidino-butanoyl]amino]ethyl]-4-[[3-[2,3-difluoro-4-(2-pyridyloxy)phenyl]imidazo [1,2-a]pyrazin-8-yl]amino]-2-ethyl-benzamide; formic acid] | 820 nM | – |
| COc1ccc(-c2cnc3c(Nc4cc(C)c(C(=O)NCCCN)c(F)c4)nccn23)c(F)c1F [Example 427, N-(3-aminopropyl)-4-((3-(2,3-difluoro-4-methoxyphenyl)imidazo[1,2-a]pyrazin-8-yl)amino)-2-fluoro-6-methylbenzamide formate] | 690 nM | – |
| CCc1cc(Nc2nccn3c(-c4ccc(OC)c(F)c4F)cnc23)ccc1C(=O)NCC(=O)NCCNC [Example 428, 4-[[3-(2,3-difluoro-4-methoxy-phenyl)imidazo[1,2-a]pyrazin-8-yl]amino]-2-ethyl-N-[2-[2-(methylamino)ethylamino]-2-oxo-ethyl]benzamide; formic acid] | 410 nM | – |
| CCc1cc(Nc2nccn3c(-c4ccc(Oc5ccc(F)cn5)c(F)c4F)cnc23)ccc1C(=O)NCCNC(=O)[C@H](N)CCNC(=N)N [Example 429, N-[2-[[(2R)-2-amino-4-guanidino-butanoyl]amino]ethyl]-4-[[3-[2,3-difluoro-4-[(5-fluoro-2-pyridyl)oxy]phenyl]imidazo [1,2-a]pyrazin-8-yl]amino]-2-ethyl-benzamide; formic acid] | 620 nM | – |
| CCc1cc(Nc2nccn3c(-c4ccc(OC)c(F)c4F)cnc23)ccc1C(=O)NCC(=O)NCCN [Example 430, N-[2-(2-aminoethylamino)-2-oxo-ethyl]-4-[[3-(2,3-difluoro-4-methoxy-phenyl)imidazo[1,2-a]pyrazin-8-yl]amino]-2-ethyl-benzamide; formic acid] | 230 nM | – |
| CCc1cc(Nc2nccn3c(-c4ccc(Oc5ncccn5)c(F)c4F)cnc23)ccc1C(=O)NCCNC(=O)CCN [Example 431, N-[2-(3-aminopropanoylamino)ethyl]-4-[[3-(2,3-difluoro-4-pyrimidin-2-yloxy-phenyl)imidazo[1,2-a]pyrazin-8-yl]amino]-2-ethyl-benzamide; formic acid] | 530 nM | – |
| CCc1cc(Nc2nccn3c(-c4ccc(Oc5ccncn5)c(F)c4F)cnc23)ccc1C(=O)NCCNC(=O)CCN [Example 432, N-[2-(3-aminopropanoylamino)ethyl]-4-[[3-(2,3-difluoro-4-pyrimidin-4-yloxy-phenyl)imidazo[1,2-a]pyrazin-8-yl]amino]-2-ethyl-benzamide; formic acid] | 500 nM | – |
| CCc1cc(Nc2nccn3c(-c4ccc(Oc5ccncn5)c(F)c4F)cnc23)ccc1C(=O)NCCNC(=O)[C@H](N)CCCNC(=N)N [Example 433, N-[2-[[(2R)-2-amino-5-guanidino-pentanoyl]amino]ethyl]-4-[[3-(2,3-difluoro-4-pyrimidin-4-yloxy-phenyl)imidazo[1,2-a]pyrazin-8-yl]amino]-2-ethyl-benzamide; formic acid] | 460 nM | – |
| CCc1cc(Nc2nccn3c(-c4ccc(OC)c(F)c4F)cnc23)ccc1C(=O)NCC(=O)NCCN(C)C [Example 434, 4-[[3-(2,3-difluoro-4-methoxy-phenyl)imidazo[1,2-a]pyrazin-8-yl]amino]-N-[2-[2-(dimethylamino)ethylamino]-2-oxo-ethyl]-2-ethyl-benzamide; formic acid] | 250 nM | – |
| COc1ccc(-c2cnc3c(Nc4cc(F)c(C(=O)NCCCN)c(F)c4)nccn23)c(F)c1F [Example 435, N-(3-aminopropyl)-4-((3-(2,3-difluoro-4-methoxyphenyl)imidazo[1,2-a]pyrazin-8-yl)amino)-2,6-difluorobenzamide] | 730 nM | – |
| COc1ccc(-c2cnc3c(Nc4cc(F)c(C(=O)NCCCN)c(Cl)c4)nccn23)c(F)c1F [Example 436, N-(3-aminopropyl)-2-chloro-4-((3-(2,3-difluoro-4-methoxyphenyl)imidazo[1,2-a]pyrazin-8-yl)amino)-6-fluorobenzamide] | 650 nM | – |
| CCc1cc(Nc2nccn3c(-c4ccc(Oc5ncccn5)c(F)c4F)cnc23)ccc1C(=O)NCCNC(=O)[C@H](N)CCCNC(=N)N [Example 437, N-[2-[[(2R)-2-amino-5-guanidino-pentanoyl]amino]ethyl]-4-[[3-(2,3-difluoro-4-pyrimidin-2-yloxy-phenyl)imidazo[1,2-a]pyrazin-8-yl]amino]-2-ethyl-benzamide; formic acid] | – | 410 nM |
| CCc1cc(Nc2nccn3c(-c4ccc(Oc5ncccn5)c(F)c4F)cnc23)ccc1C(=O)NCCNC(=O)[C@@H](N)CCNC(=N)N [Example 438, N-[2-[[(2S)-2-amino-4-guanidino-butanoyl]amino]ethyl]-4-[[3-(2,3-difluoro-4-pyrimidin-2-yloxy-phenyl)imidazo[1,2-a]pyrazin-8-yl]amino]-2-ethyl-benzamide; formic acid] | – | 550 nM |
| CCc1cc(Nc2nccn3c(-c4ccc(Oc5ncccn5)c(F)c4F)cnc23)ccc1C(=O)NCCNC(=O)[C@H](N)CCNC(=N)N [Example 439, N-[2-[[(2R)-2-amino-4-guanidino-butanoyl]amino]ethyl]-4-[[3-(2,3-difluoro-4-pyrimidin-2-yloxy-phenyl)imidazo[1,2-a]pyrazin-8-yl]amino]-2-ethyl-benzamide; formic acid] | – | 340 nM |
| CCc1cc(Nc2nccn3c(-c4ccc(Oc5ccncn5)c(F)c4F)cnc23)ccc1C(=O)NCCNC(=O)[C@@H](N)CCNC(=N)N [Example 440, N-[2-[[(2S)-2-amino-4-guanidino-butanoyl]amino]ethyl]-4-[[3-(2,3-difluoro-4-pyrimidin-4-yloxy-phenyl)imidazo[1,2-a]pyrazin-8-yl]amino]-2-ethyl-benzamide; formic acid] | 520 nM | – |
| CCc1cc(Nc2nccn3c(-c4ccc(Oc5ccncn5)c(F)c4F)cnc23)ccc1C(=O)NCCNC(=O)[C@H](N)CCNC(=N)N [Example 441, N-[2-[[(2R)-2-amino-4-guanidino-butanoyl]amino]ethyl]-4-[[3-(2,3-difluoro-4-pyrimidin-4-yloxy-phenyl)imidazo[1,2-a]pyrazin-8-yl]amino]-2-ethyl-benzamide; formic acid] | 460 nM | – |
| CCc1cc(Nc2nccn3c(-c4ccc(OC(F)F)c(F)c4F)cnc23)ccc1C(=O)NCCCO[C@@H]1O[C@H](CO)[C@@H](O)[C@H](O)[C@H]1O [Example 442, 4-((3-(4-(difluoromethoxy)-2,3-difluorophenyl)imidazo[1,2-a]pyrazin-8-yl)amino)-2-ethyl-N-(3-(((2R,3R,4S,5S,6R)-3,4,5-trihydroxy-6-(hydroxymethyl)tetrahydro-2H-pyran-2-l)oxy)propyl)benzamide] | 410 nM | – |
| Cc1cc(Nc2nccn3c(-c4ccc(OC(F)F)cc4)cnc23)ccc1C(=O)N(C)CCC1CCN(CCCC(=O)O)CC1 [Example 443, 4-(4-(2-(4-((3-(4-(difluoromethoxy)phenyl)im-idazo[1,2-a]pyrazin-8-yl)amino)-N,2-dimethylbenzamido)ethyl)piperidin-1-yl)butanoic acid hydrochloride] | 760 nM | – |
| CCc1cc(Nc2nccn3c(-c4ccc(OC)c(F)c4F)cnc23)ccc1C(=O)NCCN1CCN(CCCC(=O)O)CC1 [Example 444, 4-(4-(2-(4-((3-(2,3-difluoro-4-methoxyphenyl)imidazo[1,2-a]pyrazin-8-yl)amino)-2-ethylbenzamido)ethyl)pipera-zin-1-yl)butanoic acid] | 320 nM | – |
| CCc1cc(Nc2nccn3c(-c4ccc(Oc5nccc(C)n5)c(F)c4F)cnc23)ccc1C(=O)NCCNC(=O)[C@@H](N)CCNC(=N)N [Example 445, (S)-N-(2-(2-amino-4-guanidinobutanamido)ethyl)-4-((3-(2,3-difluoro-4-((4-methylpyrimidin-2-yl)oxy)phenyl)imidazo[1,2-a]pyrazin-8-yl)amino)-2-ethylbenzamide formiate 1:2] | 380 nM | – |
| CCc1cc(Nc2nccn3c(-c4ccc(OC)c(F)c4F)cnc23)ccc1C(=O)NCC(=O)NCCN1CCC1 [Example 446, N-[2-[2-(azetidin-1-yl)ethylamino]-2-oxo-ethyl]-4-[[3-(2,3-difluoro-4-methoxy-phenyl)imidazo[1,2-a]pyrazin-8-yl]amino]-2-ethyl-benzamide; formic acid] | 300 nM | – |
